Experimental data from PubChem BioAssay (NCI).
“And” between values parts separate entries of the source, which are not always exact repeats. Equal entries are not always repeated.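 Briefly, cells in 96-well plates were exposed to five compound concentrations for 48 h, and endpoints were estimated by linear interpolation. At the GI50, growth is halved. TGI: total growth inhibition.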

Legend:
Test in all cases: DTP human tumour cell line panel, 48 h
NCI/ADR-RES ovarian = test system: NCI/ADR-RES ovarian
T-47D breast = test system: T-47D breast
A549 NSCLC = test system: A549 NSCLC
SNB-75 CNS = test system: SNB-75 CNS
MDA-MB-435 = test system: MDA-MB-435
SW-620 colon = test system: SW-620 colon
NCI-H522 lung = test system: NCI-H522 lung
OVCAR-8 ovarian = test system: OVCAR-8 ovarian
SF-539 CNS = test system: SF-539 CNS
DU-145 prostate = test system: DU-145 prostate

SMILES	TGI (NCI/ADR-RES ovarian)	TGI (T-47D breast)	TGI (A549 NSCLC)	TGI (SNB-75 CNS)	TGI (MDA-MB-435)	TGI (SW-620 colon)	TGI (NCI-H522 lung)	TGI (OVCAR-8 ovarian)	TGI (SF-539 CNS)	TGI (DU-145 prostate)	GI50 (SNB-75 CNS)	GI50 (SF-539 CNS)	GI50 (NCI/ADR-RES ovarian)	GI50 (T-47D breast)	GI50 (A549 NSCLC)	GI50 (MDA-MB-435)	GI50 (SW-620 colon)	GI50 (NCI-H522 lung)	GI50 (OVCAR-8 ovarian)	GI50 (DU-145 prostate)
C=C([C@@]1(O)C[C@H]2[C@H](CCC2(OC)OC)[C@@H]2c3ccccc3O[C@@H]21)[Si](C)(C)C	> 100 µM	> 100 µM	> 100 µM	> 100 µM	> 100 µM	> 100 µM	> 100 µM	> 100 µM	> 100 µM	> 100 µM	–	–	–	–	–	–	–	–	–	–
COc1ccc2cc(C(C)C(=O)N3CCOC3=O)ccc2c1 (configuration not stated)	> 100 µM	> 100 µM	> 100 µM	> 100 µM	> 100 µM	> 100 µM	> 100 µM	> 100 µM	> 100 µM	> 100 µM	–	–	–	–	–	–	–	–	–	–
CC(C)=CCNc1ncnc2c1ncn2CCC#N	> 100 µM	> 100 µM	> 100 µM	> 100 µM	> 100 µM	> 100 µM	> 100 µM	> 100 µM	> 100 µM	> 100 µM	–	–	–	–	–	–	–	–	–	–
CCN1CCC(O)(/C=C/c2ccc(C)cc2C)C(C(=O)/C=C/c2ccc(C)cc2C)C1 (configuration not stated)	7.31 µM	8.01 µM	11.1 µM	36.6 µM	7.95 µM	10.4 µM	3.73 µM	5.08 µM	4.18 µM	10.5 µM	–	–	–	–	–	–	–	–	–	–
Nc1nc(Cl)cc(NCC2(CO)CCCC2)n1	> 100 µM	> 100 µM	> 100 µM	> 100 µM	> 100 µM	> 100 µM	> 100 µM	> 100 µM	> 100 µM	> 100 µM	–	–	–	–	–	–	–	–	–	–
CN(C)CCOC1(Cc2ccc(F)cc2)CCC(C(C)(C)C)CC1 (configuration not stated)	24.2 µM and 27.7 µM	17.1 µM and 13.7 µM	22 µM and 25.3 µM	17.2 µM and 16.5 µM	15 µM and 12.3 µM	16.6 µM and 20.7 µM	14.2 µM and 23.5 µM	25.1 µM and 26.9 µM	19.1 µM and 27.1 µM	21.4 µM and 22.3 µM	4.03 µM and 8.49 µM	5.73 µM and 13.4 µM	–	–	–	–	–	–	–	–
Cc1cc(NCc2ccccc2)c2ccccc2[n+]1CCCCCCCCCC[n+]1c(C)cc(NCc2ccccc2)c2ccccc21	21.9 µM	1.41 µM	4.39 µM	1.94 µM	1.65 µM	4.31 µM	44.3 µM	6.71 µM	1.13 µM	10.9 µM	–	–	–	–	–	–	–	–	–	–
COc1ccc(-c2nn(-c3ccc(NC(=O)Nc4cc(C(F)(F)F)cc(C(F)(F)F)c4)cc3)cc2-c2ccncc2)cc1Cl	> 100 µM	83.3 µM	> 100 µM	8.11 µM	> 100 µM	> 100 µM	7.01 µM	> 100 µM	5.37 µM	> 100 µM	1.8 µM	1.87 µM	2.91 µM	4.1 µM	2.84 µM	3.03 µM	2.99 µM	1.9 µM	3.27 µM	4.25 µM
COc1ccc(NS(=O)(=O)c2ccc(NC(NC(=O)CC(C)C)(C(F)(F)F)C(F)(F)F)cc2)nn1	> 100 µM	> 100 µM	> 100 µM	> 100 µM	> 100 µM	> 100 µM	> 100 µM	> 100 µM	> 100 µM	> 100 µM	–	–	–	–	–	–	–	–	–	–
N#CC1=C(N)N(c2ccccc2)C(c2ccccc2)C1(C#N)C#N (configuration not stated)	45.3 µM	24.4 µM	45.2 µM	42 µM	35.6 µM	37.2 µM	34.9 µM	33.5 µM	32.5 µM	32.9 µM	–	–	–	–	–	–	–	–	–	–
Cn1c2ccccc2c(=NNc2cccc(C(=O)O)c2)c2ccccc21	67.7 µM	40.9 µM	27.3 µM	54 µM	27.1 µM	35.5 µM	21 µM	53.3 µM	46.9 µM	47.8 µM	–	–	–	–	–	–	–	–	–	–
COc1ccc(/C=C2\N=C(SC)NC2=O)cc1	> 100 µM	> 100 µM	> 100 µM	> 100 µM	> 100 µM	> 100 µM	> 100 µM	> 100 µM	> 100 µM	> 100 µM	–	–	–	–	–	–	–	–	–	–
C#C[C@]1(O)CC[C@H]2[C@@H]3CCC4=C/C(=N/OC(=O)c5cccc6c(=O)c7ccccc7[nH]c56)CC[C@@H]4[C@H]3CC[C@@]21C	> 100 µM	91.1 µM	> 100 µM	> 100 µM	> 100 µM	> 100 µM	84.1 µM	> 100 µM	> 100 µM	> 100 µM	–	–	–	–	–	–	–	–	–	–
N#Cc1c(Cl)cc(Cl)n2c1nc1ccccc12	40.5 µM	31.8 µM	34.7 µM	32.7 µM	35.3 µM	> 45 µM	3.61 µM	35 µM	12 µM	31.8 µM	–	–	–	–	–	–	–	–	–	–
O=C(O)c1ccc(OCc2nc3cc(C(F)(F)F)ccc3nc2-c2ccccc2)cc1	> 100 µM	> 100 µM	> 100 µM	98.7 µM	> 100 µM	> 100 µM	> 100 µM	> 100 µM	76.8 µM	> 100 µM	–	–	–	–	–	–	–	–	–	–
CC1=NNC(=O)C1C(CC(=O)c1c[nH]c2ccccc12)C(=O)O (configuration not stated)	> 100 µM	> 100 µM	> 100 µM	> 100 µM	> 100 µM	> 100 µM	> 100 µM	> 100 µM	> 100 µM	> 100 µM	–	–	–	–	–	–	–	–	–	–
Nc1ccc(C(=O)N2CCC[C@H]2CO)c(N)c1	> 100 µM	> 100 µM	> 100 µM	> 100 µM	> 100 µM	> 100 µM	> 100 µM	> 100 µM	> 100 µM	> 100 µM	–	–	–	–	–	–	–	–	–	–
O=C1c2cccnc2-c2nccc3c2c1nc1cc(Br)ccc13	0.0711 µM	0.848 µM	0.309 µM	0.81 µM	0.607 µM	0.162 µM	0.29 µM	0.388 µM	0.709 µM	0.421 µM	–	–	–	–	–	–	–	–	–	–
COc1ccc2c(c1)CCN1CCc3ccccc3CC21 (configuration not stated)	> 100 µM	> 100 µM	> 100 µM	> 100 µM	> 100 µM	> 100 µM	> 100 µM	> 100 µM	> 100 µM	> 100 µM	–	–	–	–	–	–	–	–	–	–
C=CCOc1ccc(C2(O)c3ccccc3C3=NCCCN32)cc1 (configuration not stated)	> 100 µM	> 74.6 µM	> 100 µM	> 100 µM	> 85.6 µM	> 100 µM	> 100 µM	> 100 µM	> 100 µM	> 100 µM	–	–	–	–	–	–	–	–	–	–
C=CCOc1ccc(C2C(C(=O)OCC)C(=O)CC(C)(O)C2C(=O)OCC)cc1OC (configuration not stated)	> 100 µM	> 100 µM	> 100 µM	> 100 µM	> 100 µM	> 100 µM	> 100 µM	> 100 µM	> 100 µM	> 100 µM	–	–	–	–	–	–	–	–	–	–
CN(C)c1ccc(C2SCC(=O)N2c2ccc(Oc3ccc(Cl)cc3)c(Cl)c2)cc1 (configuration not stated)	50.7 µM	61 µM	60.3 µM	50.9 µM	84 µM	> 100 µM	42.9 µM	86.4 µM	40.4 µM	57.2 µM	–	–	–	–	–	–	–	–	–	–
CC12CCC(O)CC1CCC1C2CCC2(C)C(C(=O)CC(O)C(F)(F)F)CCC12 (configuration not stated)	> 100 µM	> 100 µM	> 100 µM	81.1 µM	> 100 µM	> 100 µM	> 100 µM	> 100 µM	> 92.9 µM	> 100 µM	–	–	–	–	–	–	–	–	–	–
CC(=O)O[C@H]1CC[C@@]2(C)C(=CC[C@H]3[C@@H]4C[C@H](N5CCOCC5)[C@H](OC(C)=O)[C@@]4(C)CC[C@@H]32)C1	> 100 µM	> 100 µM	> 100 µM	> 100 µM	> 100 µM	> 100 µM	> 100 µM	> 100 µM	> 100 µM	> 100 µM	–	–	–	–	–	–	–	–	–	–
C[N+]12CCCCC1C(CN1C(=O)Cc3c4ccccc4c(c4ccccc34)CC1=O)CCC2 (configuration not stated)	> 100 µM	> 100 µM	> 100 µM	> 100 µM	> 100 µM	> 100 µM	> 100 µM	> 100 µM	> 100 µM	> 100 µM	–	–	–	–	–	–	–	–	–	–
CCC1(C)C=Cc2c(cc(O)c3c(=O)c4ccccc4n(C)c23)O1 (configuration not stated)	> 10 µM	> 10 µM	> 10 µM	> 10 µM	> 10 µM	> 10 µM	> 10 µM	> 10 µM	> 10 µM	> 10 µM	–	–	–	–	–	–	–	–	–	–
CC(=O)[C@@]1(O)CC[C@H]2[C@@H]3C[C@H](C)C4=CC(=O)C=C[C@]4(C)[C@@]3(F)[C@@H](O)C[C@@]21C	> 100 µM	> 100 µM	> 100 µM	> 91.9 µM	> 100 µM	> 100 µM	> 100 µM	> 100 µM	> 100 µM	> 100 µM	–	–	–	–	–	–	–	–	–	–
O=[N+]([O-])/C(C(Cl)=C(Cl)Cl)=C(\N1CCCCC1)n1cncn1	56 µM	38.3 µM	39.8 µM	49.4 µM	36.3 µM	36.9 µM	31.6 µM	40.8 µM	31.4 µM	30.3 µM	–	–	–	–	–	–	–	–	–	–
Cc1nc2sc3ccccc3n2c(=O)c1N=Nc1ccc(Cl)cc1	> 100 µM	> 100 µM	> 100 µM	> 100 µM	> 100 µM	> 100 µM	> 100 µM	> 100 µM	> 100 µM	> 100 µM	–	–	–	–	–	–	–	–	–	–
CC1=C(CO)C(=O)O[C@@H]([C@@H](CO)[C@H]2CCC3C4C[C@@H](O)[C@@]5(O)CC=CC(=O)[C@]5(C)C4CC[C@@]32C)C1 (some centres not stated)	> 100 µM	> 100 µM	> 100 µM	> 100 µM	> 100 µM	> 100 µM	> 100 µM	> 100 µM	> 100 µM	> 100 µM	–	–	–	–	–	–	–	–	–	–
